Experimental findings from patent US7838674B2, “Tetracyclic lactame derivatives” (Novartis AG, priority 2007, dated 2010) are described below.

The test system of test [1] is TNF-α release from hPBMCs. The test can be described thus: Assay for inhibition of TNF-α release from hPBMCs (IFNγ/LPS stimulated). The note with it: Homo sapiens, IFNγ (10 ng/ml) and LPS (5 μg/ml), 3 h. Type of test: cell-based. As to the method: Assay for Inhibition of TNF-α Release from hPBMCs
Human peripheral blood mononuclear cells (hPBMCs) are prepared from the peripheral blood of healthy volunteers using Ficoll-Plaque Plus (Amersham) density separation according to the method described within. Cells are seeded at a 1×10^5 cells/well in 96-well plates in RPMI 1640 medium (Invitrogen) containing 10% (v/v) fetal calf serum (FCS). Cells are pre-incubated with serial dilutions of test compound (0.25% v/v DMSO final) for 30 min at 37° C. Cells are stimulated with the addition of IFNγ (10 ng/ml) and lipopolysaccharide(LPS) (5 μg/ml) per well and incubated for 3 h at 37° C. Following a brief centrifugation (250×g for 2 min), supernatant (10 μl) samples are taken from each well and measured against a TNFα calibration curve using a HTRF TNFα kit (CisBio) as described within.
Using the TNF-α release assay described above, compounds of the formula I can be shown to have the following inhibition values: […]

Another test deals with human MK2 (Homo sapiens, UniProt P49137). Put plainly: MAPKAPK2 kinase assay (TR-FRET, Hsp27 peptide substrate). On the technique in general: In TR-FRET formats the signal depends on donor and acceptor labels being close together.
human MK2, sequence (P49137 whole entry): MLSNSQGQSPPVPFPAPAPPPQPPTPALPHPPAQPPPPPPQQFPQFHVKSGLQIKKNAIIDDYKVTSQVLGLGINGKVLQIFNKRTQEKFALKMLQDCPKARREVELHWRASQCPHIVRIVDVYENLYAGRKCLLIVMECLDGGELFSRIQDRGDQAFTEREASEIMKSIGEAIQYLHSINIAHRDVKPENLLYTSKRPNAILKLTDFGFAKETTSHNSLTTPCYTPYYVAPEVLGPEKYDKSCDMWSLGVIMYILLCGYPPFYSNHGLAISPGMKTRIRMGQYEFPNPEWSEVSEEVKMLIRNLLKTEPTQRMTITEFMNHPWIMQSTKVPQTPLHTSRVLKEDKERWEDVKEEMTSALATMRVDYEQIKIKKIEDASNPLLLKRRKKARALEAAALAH
Test [2] deals with T1, MAPKAPK2 enzyme (HIS-MK2, Invitrogen PV4019) (Homo sapiens, UniProt P49137).
T1 construct: His; purchased Invitrogen PV4019
T1 sequence (P49137 whole entry): as above
The test can be described thus: Alternative MAPKAPK2 assay (Caliper microfluidic mobility shift, HSP27-peptide). The test is classed as biochemical. The following applies: HIS-MK2 0.013 nM, ATP 10 μM, 60 min at 30° C.

Where a name gives a salt, the structure may show the parent alone.

For the molecule `COCCOc1cncc(-c2cc3c(cn2)CCc2c-3[nH]c3c2C(=O)NCC32CC2)c1` [Example 1, 2-(1-Aminomethyl-cyclopropyl)-8-[5-(2-methoxy-ethoxy)-pyridin-3-yl]-4,5-dihydro-1H-pyrrolo[2,3-f]isoquinoline-3-carboxylic acid lactame], the IC50 in test [1] came out at 320 nM; against human MK2, 47 nM. In the case of `COc1ccc(-c2cc3c(cn2)CCc2c-3[nH]c3c2C(=O)NC2(CC2)C3)cc1` [Example 40, 2-(1-Amino-cyclopropylmethyl)-8-(4-methoxy-phenyl)-4,5-dihydro-1H-pyrrolo[2,3-f]isoquinoline-3-carboxylic acid lactam], the IC50 in test [1] was 220 nM. Turning to `COc1cncc(-c2cc3c(cn2)CCc2c-3[nH]c3c2C(=O)NC2(CCC2)C3)c1` [Example 99, 2-(1-Amino-cyclobutylmethyl)-8-(5-methoxy-pyridin-3-yl)-4,5-dihydro-1H-pyrrolo[2,3-f]isoquinoline-3-carboxylic acid lactam], the IC50 in test [1] is 311 nM; in test [2], 72 nM. Consider `Cc1ccc(-c2cc3c(cn2)CCc2c-3[nH]c3c2C(=O)NC2(CCC2)C3)cn1` [Example 103, 2-(1-Amino-cyclobutylmethyl)-8-(6-methyl-pyridin-3-yl)-4,5-dihydro-1H-pyrrolo[2,3-f]isoquinoline-3-carboxylic acid lactam], for which the IC50 in test [1] was determined as 336 nM; in test [2] it was 57 nM. As for `N#Cc1ccc(-c2cc3c(cn2)CCc2c-3[nH]c3c2C(=O)NCC32CC2)cn1` [Example 127, 2-(1-Aminomethyl-cyclopropyl)-8-(6-cyano-pyridin-3-yl)-4,5-dihydro-1H-pyrrolo[2,3-f]isoquinoline-3-carboxylic acid lactam], inhibition in test [1] was half-maximal at 264 nM (IC50). The same measure, in the same setting: then `CN1CC2(CNC(=O)c3c2[nH]c2c3CCc3cnc(-c4ccccc4F)cc3-2)C1` [Example 172, 2-(3-Aminomethyl-1-methyl-azetidin-3-yl)-8-(2-fluoro-phenyl)-4,5-dihydro-1H-pyrrolo[2,3-f]isoquinoline-3-carboxylic acid lactam], with 347 nM. With `CC(C)Oc1ccc(-c2cc3c(cn2)CCc2c-3[nH]c3c2C(=O)NCC32CN(C)C2)cn1` [Example 185, 2-(3-Aminomethyl-1-methyl-azetidin-3-yl)-8-(6-isopropoxy-pyridin-3-yl)-4,5-dihydro-1H-pyrrolo[2,3-f]isoquinoline-3-carboxylic acid lactam hydrochloride], the IC50 was 134 nM in test [1] and less than 3 nM in test [2]. On the same counts, the results for `O=C1NCC2(CNC2)c2[nH]c3c(c21)CCc1cnc(-c2cccc(Cl)c2)cc1-3` [Example 187, 2-[3-Aminomethyl-azetidin-3-yl]-8-(3-chloro-phenyl)-4,5-dihydro-1H-pyrrolo[2,3-f]isoquinoline-3-carboxylic acid lactam hydrochloride] are 156 nM and less than 3 nM. The molecule `O=C1NC2(CC2)C2(CC2)c2[nH]c3c(c21)CCc1cnc(-c2cccc(F)c2)cc1-3` [Example 195, 2-(1′-Amino-bicyclopropyl-1-yl)-8-(3-fluoro-phenyl)-4,5-dihydro-1H-pyrrolo[2,3-f]isoquinoline-3-carboxylic acid lactam] yielded an IC50 in test [1] of 333 nM.

Consider `COc1ccc(-c2ncc3c(n2)-c2[nH]c4c(c2CC3)C(=O)NCC42CN(C)C2)cc1` [Example 207, 2-(3-Aminomethyl-1-methyl-azetidin-3-yl)-8-(4-methoxy-phenyl)-4,5-dihydro-1H-1,7,9-triaza-cyclopenta[a]naphthalene-3-carboxylic acid lactam], for which inhibition in test [1] was half-maximal at 130 nM (IC50).

As to `O=C1NCC2(CC2)c2[nH]c3c(c21)CCc1cnc(-c2ccc(CN4CCOCC4)c(F)c2)cc1-3` [Example 301, 2-(3-Fluoro-4-morpholin-4-ylmethyl-phenyl)-10-spirocyclopropyl-5,6,8,9,10,11-exahydro-3,8,11-triaza-benzo[a]fluoren-7-one], the IC50 in test [1] came to 256 nM; in test [2], 29 nM.

Broadly, the IC50 is the concentration at which inhibition is half-maximal.
